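Test compounds were applied to cells in 96-well plates for 48 hours at 5 doses. GI50 is the concentration that inhibits growth by half. TGI: concentration producing complete growth inhibition.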

Some test systems named below: OVCAR-3 ovarian; ACHN renal; OVCAR-5 ovarian; IGROV1 ovarian; A498 renal; NCI-H522 lung; MOLT-4 leukemia; NCI/ADR-RES ovarian; HOP-92 NSCLC; SK-MEL-28 melanoma.
Holding throughout (assay): NCI-60 cell line screen, 48 h

For `O=C(Nc1n[nH]c2cc(-c3ccccc3)ccc12)C1CC1`, the GI50 in the experiment on OVCAR-3 ovarian was 5.34 µM; with ACHN renal, over 25 µM; in the experiment with OVCAR-5 ovarian it was over 25 µM; with IGROV1 ovarian, 19.6 µM; with A498 renal, 16.1 µM; in the experiment on NCI-H522 lung, 1.29 µM. Besides, the GI50 is over 16.6 µM with MOLT-4 leukemia, 1.79 µM with NCI/ADR-RES ovarian, over 25 µM in the experiment with HOP-92 NSCLC and over 22.1 µM with SK-MEL-28 melanoma. The TGI is 16.9 µM with OVCAR-3 ovarian; over 25 µM with ACHN renal; over 25 µM with OVCAR-5 ovarian; over 25 µM with IGROV1 ovarian; over 25 µM with A498 renal; over 25 µM in the experiment on NCI-H522 lung. Besides, the TGI with MOLT-4 leukemia, with NCI/ADR-RES ovarian, with HOP-92 NSCLC and in the experiment with SK-MEL-28 melanoma was over 25 µM each time.

As for `O=S(=O)(c1ccc(NC(=S)NC23CC4CC(CC(C4)C2)C3)cc1)N1CCCCC1`, the GI50 with OVCAR-3 ovarian is 3.51 µM; in the experiment on ACHN renal, 3.12 µM; in the experiment with OVCAR-5 ovarian, 3.53 µM; in the experiment with IGROV1 ovarian, 4.63 µM; in the experiment with A498 renal it was 2.04 µM; in the experiment on NCI-H522 lung, 2.7 µM. Besides, the GI50 was 3.24 µM with MOLT-4 leukemia, 3.46 µM in the experiment with NCI/ADR-RES ovarian, 1.63 µM with HOP-92 NSCLC and 5.23 µM with SK-MEL-28 melanoma. Besides, the TGI with OVCAR-3 ovarian is 21.1 µM; in the experiment with ACHN renal, over 100 µM; in the experiment on OVCAR-5 ovarian, over 100 µM; with IGROV1 ovarian, over 100 µM; with A498 renal, 7.79 µM; in the experiment with NCI-H522 lung it was 6.62 µM. The TGI in the experiment with MOLT-4 leukemia was 11.4 µM; in the experiment on NCI/ADR-RES ovarian, over 100 µM; with HOP-92 NSCLC it was 5 µM; in the experiment on SK-MEL-28 melanoma it was over 100 µM.

Turning to `OCC1OC(n2cnc3c2NC=NC[C@H]3O)C(Cl)C1O` (some centres undefined), the TGI in the experiment with OVCAR-3 ovarian, with ACHN renal, in the experiment on OVCAR-5 ovarian, in the experiment with IGROV1 ovarian, in the experiment with A498 renal and with NCI-H522 lung was over 100 µM each time. Further, the TGI with MOLT-4 leukemia, in the experiment on NCI/ADR-RES ovarian, with HOP-92 NSCLC and in the experiment with SK-MEL-28 melanoma was over 100 µM each time.

Regarding `COCC[C@H]1CCC/C=C/[C@@H]2C[C@H](O)C[C@H]2[C@H](O)/C=C/C(=O)O1`, the GI50 is 0.0505 µM with OVCAR-3 ovarian; 0.319 µM in the experiment on ACHN renal; 0.247 µM in the experiment with OVCAR-5 ovarian; 0.331 µM with IGROV1 ovarian; 0.0231 µM in the experiment on A498 renal; 0.21 µM with NCI-H522 lung. Moreover, the GI50 with MOLT-4 leukemia was 0.353 µM; in the experiment on NCI/ADR-RES ovarian, 0.0472 µM; in the experiment with HOP-92 NSCLC, 0.214 µM; with SK-MEL-28 melanoma, 0.0345 µM. The TGI is 0.273 µM in the experiment with OVCAR-3 ovarian; over 100 µM in the experiment on ACHN renal; over 100 µM with OVCAR-5 ovarian; over 29 µM in the experiment with IGROV1 ovarian; 0.107 µM in the experiment on A498 renal; 0.557 µM in the experiment with NCI-H522 lung. Moreover, the TGI in the experiment on MOLT-4 leukemia is over 100 µM; with HOP-92 NSCLC, 0.888 µM; in the experiment with SK-MEL-28 melanoma, 0.153 µM.

`COc1c(C(=O)/C=C/c2ccccc2)c(O)cc2occc12`: the GI50 is 3.76 µM in the experiment with OVCAR-3 ovarian; 4.51 µM in the experiment on ACHN renal; 5.67 µM in the experiment on OVCAR-5 ovarian; 3.51 µM in the experiment on IGROV1 ovarian; 7.97 µM in the experiment on A498 renal; 4.29 µM in the experiment on NCI-H522 lung. Further, the GI50 is 3.36 µM in the experiment on MOLT-4 leukemia, 2.42 µM in the experiment on NCI/ADR-RES ovarian, 1.64 µM with HOP-92 NSCLC and 7.03 µM in the experiment on SK-MEL-28 melanoma. Moreover, the TGI is 11.3 µM with OVCAR-3 ovarian; 19.9 µM in the experiment on ACHN renal; 19.8 µM in the experiment with OVCAR-5 ovarian; 11.4 µM with IGROV1 ovarian; 21.8 µM in the experiment with A498 renal; 15.7 µM in the experiment on NCI-H522 lung. Further, the TGI in the experiment with MOLT-4 leukemia was over 100 µM; in the experiment with NCI/ADR-RES ovarian, 6.32 µM; with HOP-92 NSCLC it was 7.09 µM; in the experiment with SK-MEL-28 melanoma, 20.7 µM.

For `CC/C=C\C[C@H](O)C/C=C1/C(=O)C=C[C@@H]1C/C=C\CCCC(=O)OC`, the GI50 is 0.692 µM in the experiment with OVCAR-3 ovarian; 2 µM with ACHN renal; 2.7 µM in the experiment on OVCAR-5 ovarian; 3.05 µM in the experiment with IGROV1 ovarian; 4.91 µM in the experiment on A498 renal; 1.03 µM in the experiment with NCI-H522 lung. Also, the GI50 in the experiment on MOLT-4 leukemia is 0.945 µM; with NCI/ADR-RES ovarian it was 2.61 µM; with HOP-92 NSCLC it was 3.22 µM; in the experiment on SK-MEL-28 melanoma, 1.81 µM. Also, the TGI worked out at 2.13 µM in the experiment on OVCAR-3 ovarian; 4.27 µM with ACHN renal; 6.69 µM in the experiment with OVCAR-5 ovarian; 8.71 µM with IGROV1 ovarian; 14.4 µM in the experiment with A498 renal; 2.43 µM in the experiment with NCI-H522 lung. The TGI in the experiment with MOLT-4 leukemia came to 4.8 µM; in the experiment on NCI/ADR-RES ovarian, 10.8 µM; in the experiment on HOP-92 NSCLC, 8.67 µM; in the experiment with SK-MEL-28 melanoma, 4.37 µM.
